Results reported in a melting point compilation (Tetko et al.; mined from patent text by program, amines drawn as free bases though some values may be those of a salt).

Row | Structure (SMILES) | melting point
1 | O=C(O)CCc1cc(-c2ccc(Cl)cc2)n(-c2nc3c(Cl)cccc3s2)n1 | 232 to 234 °C
2 | CCc1nc2c(N)nc3c(c2n1CCCCS(=O)(=O)NC)CCCC3 | 166 to 170 °C
3 | Cn1c(=O)[n+]([O-])c(-c2ccccc2)c2cc(Cl)ccc21 | 254 °C
4 | CCCCOC(=O)NCCc1nc(-c2ccc(-c3ccccc3)cc2)c(C)[nH]1 | 143 to 144 °C
5 | Cc1cc2c(cc1C(F)(F)F)N(Cc1ccc(C(=O)O)cc1)CCC[C@@H]2N(Cc1cc(C(F)(F)F)cc(C(F)(F)F)c1)c1nnn(C)n1 | 95 to 98 °C
6 | CCNc1nc(SC)ncc1CNc1cc(OC)cc(OC)c1 | 100 to 105 °C
7 | Cc1cc(OC(F)(F)F)ccc1NC(=O)c1cccc(I)c1C(=O)NC(C)CC(=O)N(C)C (stereo not given) | 104 °C
8 | Cc1ccc(Cl)c(C2CC(=O)c3c(C)ccnc3C2)c1 (stereo not given) | 123 to 124 °C
9 | COc1cc2c(cc1Nc1ncc(Cl)c(Nc3ccccc3S(=O)(=O)N3CCC(O)C3)n1)CCN(CC(=O)N(C)C)CC2 (stereo not given) | 70 to 84 °C
10 | CCOC(=O)C1=C(C)NC(C)=C(C(=O)OCC)C1c1ccccc1S(C)=O (stereo not given) | 232 to 233 °C
11 | CCCCCCCCCCCCCCCCCCS(=O)(=O)c1cc2ccccc2c(N=Nc2ccc(OC)cc2)c1O | 117 to 119 °C
12 | CN(C)c1c(C(N)=O)cnc2c(NC(=O)c3c(Cl)cccc3Cl)cccc12 | 222 to 223 °C
13 | CCOC(=O)CSc1cc(C)nc(N)n1 | 65 to 69 °C
14 | O=C(c1ccc(Cl)cc1)c1cc([N+](=O)[O-])ccc1N1CCC(Cc2ccccc2)CC1 | 211 °C
15 | CNCC(O)COc1cc(-c2ccc(C)cc2)nc2cc(C)ccc12 (racemic) | 146 to 150 °C
16 | CCCn1c(C)nn(-c2ccc(N)cc2)c1=O | 139 °C
17 | CC12CCC(C1)C1(C)Oc3ccc(C4(c5ccc(C(=O)O)cc5)OCCO4)cc3C21C (stereo not given) | 234 to 236 °C
18 | O=C(Cc1ccccc1Cl)Nc1ccc(C(=O)Oc2ccccc2)c(Cl)c1 | 160 to 163 °C
19 | C[C@@H]1OCc2cc3c(nc21)N1[C@H](C3)CN(C(=O)OC(C)(C)C)C[C@H]1C | 143 to 144 °C
20 | COc1cc(C(F)(F)F)sc1C(=O)O | 131 to 132 °C
21 | NC(=O)c1ccc(-c2ccc3nnn(Cc4cc5cccnc5cc4F)c3n2)cc1F | 206 to 208 °C
22 | CCNC(=O)n1nc(Oc2c(Cl)cc(C(F)(F)F)cc2Cl)c(Cl)c1C | 85 to 86 °C
23 | CC(C)(C)OC(=O)N1CCC[C@H](COc2cccnc2Br)C1 | 79 to 81 °C
24 | COc1ccc(NCCOc2ccc3ccccc3c2)cc1 | 92 °C
25 | COC(=O)c1cn(Cc2ccc(OCc3nc(-c4ccccc4)oc3C)cc2)nc1C(C)C | 90 to 91 °C

Row | Structure (SMILES) | melting point
26 | COc1ccc2cnc(=O)[nH]c2c1C1CCCC1 | 201 to 204 °C
27 | CCCCOc1c(\C(C)=C/C=C/C(C)=C/C(=O)O)cc(C(C)(C)C)cc1C(C)(C)C | 148 to 151 °C
28 | COCC(=O)N(c1c(C)ccc(CC(=O)Nc2cc(Cl)cc(Cl)c2)c1C)C(C)C(=O)OC (stereo not given) | 126 to 128 °C
29 | C/C(=C\c1ccc(OCC(=O)O)cc1)c1ccc2c(c1)C(C)(C)CCC2(C)C | 152 to 154 °C
30 | CC(C)NC(=O)c1coc(CN2C(=O)C3(COc4cc5c(cc43)OCO5)c3ccccc32)n1 (stereo not given) | 182 to 183 °C
31 | NC(=O)N1C(=O)C(C(=O)c2cccs2)c2cc(F)c(Cl)cc21 (stereo not given) | 220 to 221 °C
32 | Oc1nc2cc(Cl)c3nc[nH]c3c2nc1O | > 300 °C
33 | COc1cccc(CC(=O)O)c1OCCCc1cn(-c2ccc(C(F)(F)F)cn2)nc1C(C)C | 142 to 143 °C
34 | COc1cc2c(cc1O)CN(C(=O)OC(C)(C)C)CC2 | 80 to 83 °C
35 | Cn1cc(C(=O)NCc2ccc(Br)cc2)c(=O)c2cc(CN3CCOCC3)sc21 | 245 to 246 °C
36 | CNCC1Cc2cc(-c3ccccc3)cc(-c3ccc(F)cc3)c2O1 (stereo not given) | > 250 °C
37 | O=C1Nc2ccccc2C12CCCC2Br (stereo not given) | 238 to 240 °C
38 | COc1ccccc1N1CCN(C(=O)Cc2ccccc2Br)CC1 | 95 to 97 °C
39 | COC(=O)CN1Cc2c([nH]c3ccccc23)C1=O | 215 to 217 °C
40 | Fc1ccc(Nc2nc(N/N=C/c3cccc4ccccc34)nc(N3CCOCC3)n2)cc1 | 220 °C
41 | O=C(Nc1ccc(Br)cc1)C(=O)N1CCC(Cc2ccccc2)CC1 | 131 to 132 °C
42 | O=C(O)c1ccc(OC(F)(F)F)cc1Cl | 90.6 to 91.2 °C
43 | Cc1cc(F)ccc1-c1nc(NC2CCOCC2)nc2c1ccc(=O)n2-c1c(F)cccc1F | 231 to 232 °C
44 | Cc1cnc(C)c(Oc2ccc(OCn3cnc(Cl)c3Cl)cc2)n1 | 84 to 85 °C
45 | COc1ccc2oc(C(=O)Nc3ccc(-c4ccc(S(=O)(=O)NC(C(=O)O)C(C)C)cc4)cc3)cc2c1 (stereo not given) | 257 to 259 °C
46 | COC(=O)C(=O)NC(=O)N1CCCCC1 | 92 to 93 °C
47 | CC(C)CN(C=NS(=O)(=O)c1c(Cl)nc2ccc(Cl)nn12)CC(C)C | 151 to 154 °C
48 | N#Cc1ncn(Cc2ccc(Cl)c(Cl)c2)c1C#N | 95 to 96 °C
49 | c1ccc(-c2nnn[nH]2)c(-c2ccc(CNc3ccnc4ccnn34)cc2)c1 | 150 to 155 °C
50 | Cc1ccc2c(c1)C1CN(CCO)CCC1N2 (stereo not given) | 182 to 185 °C

Row | Structure (SMILES) | melting point
51 | NC(=O)c1sc2nccc(N3CCN(C(c4ccccc4)c4ccccc4)CC3)c2c1N | 225 to 233 °C
52 | CCCCCCC(CCC)OC1(C(C)=O)C=CC=CC1 (stereo not given) | 38 to 39 °C
53 | CCCN1CC(c2ccc(F)cc2)=C(c2ccc(S(N)(=O)=O)cc2)C1=O | 180 to 181 °C
54 | O=C(c1ccc(F)cc1)C1CCN(CCn2c(=O)[nH]c3ccccc32)CC1 | 164 °C
55 | Cc1cc2c(cc1C)C(=O)CCC2 | 47 to 48 °C
56 | C=C(Cn1ccnc1)c1cc(F)ccc1OCc1c(Cl)cccc1Cl | 106 to 108 °C
57 | O=C(Nc1cc(-n2cccn2)nc(-c2ccco2)n1)OCc1cccnc1 | 254 to 256 °C
58 | CN(C)NC(=NS(=O)(=O)c1ccc(Cl)cc1)N1CC(c2ccccc2)C(c2ccc(Cl)cc2)=N1 (single isomer, unassigned; (-)) | 218 to 224 °C
59 | O=C(c1cccnc1)N1CC2CSc3ccccc3C2=N1 (stereo not given) | 173 to 175 °C
60 | CN1CCN(NC(=O)Nc2cccc3c2C(=O)c2c-3n[nH]c2-c2ccc(N(C)C)cc2)CC1 | > 300 °C
61 | O=C(CBr)NC1(F)C=CC=CC1C(=O)c1ccccc1 (stereo not given) | 120 to 121 °C
62 | CCCCc1nc(=O)c2ccc(C(=O)OCC)cc2[nH]1 | 145 °C
63 | Cc1nc2c(N)nc3ccccc3c2n1CCCOCC#Cc1ccccc1 | 160 to 162 °C
64 | CCCCCCCCCCCCCCOc1cccc(CC(=O)Nc2cccc(CBr)c2)c1 | 104 to 106 °C
65 | CC(=O)NC(CC=Cc1ccccc1)(COC(C)=O)COC(C)=O | 88 to 90 °C
66 | O=C1Nc2ccccc2C12CCCCC2 | 164 to 165 °C
67 | O=C(O)C12CCCC(C1)C1CCC2C1 (stereo not given) | 158 to 160 °C
68 | COC1=CC(=O)C2CC=CCC2C1=O (stereo not given) | 120 to 122 °C
69 | O=C(CCCCCl)c1cc2c(c([N+](=O)[O-])c1)OCC2 | 91 to 92 °C
70 | Cc1nc2c(c3c1[nH]c1ccc(F)cc13)C(=O)CC(C)(C)C2 | 229 to 230 °C
71 | O=[N+]([O-])c1cccc(/C=C/c2nc(C3CCCCCCC3)cs2)c1 | 64 to 65 °C
72 | C(=Nn1ccnc1N1CCOCC1)c1ccccc1 | 59 to 61 °C
73 | CC1(OC(=O)C=CC2C(C(=O)OC(C#N)c3cccc(Oc4ccccc4)c3)C2(C)C)CCC1 (stereo not given) | 78 °C
74 | CC1CCCCC1N(Cc1ccc(C(=O)NC(C)(C)C(=O)O)cc1)S(=O)(=O)c1ccc(Cl)cc1 (stereo not given) | 121 to 122 °C
75 | O=CNC(C(=O)O)c1ccccc1 (stereo not given) | 170 to 175 °C

Row | Structure (SMILES) | melting point
76 | CC(=NN(c1ccccc1)c1ccccc1)c1ccccn1 | 84 °C
77 | Cc1onc(-c2ccccc2)c1-c1csc(N)n1 | 223 to 224 °C
78 | O=C(O)Cc1ccc(Oc2ccc(I)cc2)cc1 | 148 to 150 °C
79 | CC(C)c1cccc(C(C)C)c1NC(=O)CN(CC1(Nc2ccccc2)CCCCC1)C(=O)OC(C)(C)C | 125 to 127 °C
80 | CCOC(=O)CCc1ccc(OCCN2CCCC2=O)cc1O | 112 to 115 °C
81 | NCc1ccn(C2=CC3=C(CC2)CCc2[nH]c(=O)c(=O)n(CC(=O)O)c23)c1 | > 250 °C
82 | Nc1ccc(S(=O)(=O)Nc2nc(-c3cccc([N+](=O)[O-])c3)cs2)cc1 | 191 to 193 °C
83 | CC(=NOC(=O)N(C)SC(Cl)(Cl)Cl)SCCC#N | 136 to 138 °C
84 | CCOC(=O)CC(=O)c1cccs1 | 143 to 145 °C
85 | CCn1ncc2cc3c(nc21)C(Cl)c1ccccc1CC3 (stereo not given) | 107 to 110 °C
86 | CSc1cccc(NC(=O)NCC(=O)N2[C@@H](C(=O)OC(C)(C)C)C[C@H](C(=O)O)[C@H]2c2ccccc2)c1 (racemic) | 130 °C
87 | CC(C)N(CCSc1ccc(Cl)cc1)C(=O)Oc1ccccc1 | 54 to 56 °C
88 | CN(C)c1ccc(CNC(=O)c2cccnc2Oc2ccc(F)cc2)cc1 | 99.5 to 102 °C
89 | CSc1nn2c(O)cc(C)nc2c1S(=O)(=O)c1ccccc1 | > 220 °C
90 | COCc1c(C(=O)NN)ncc2[nH]c3cccc(OCc4ccccc4)c3c12 | 212 to 213 °C
91 | COC(=O)c1cc(C=O)cnc1C(=O)OC | 75 to 77 °C
92 | NCC(=O)NC(Cc1ccncc1)c1ccccc1 (stereo not given) | 145 to 147 °C
93 | CCCCC[C@H]1CC[C@H](c2cnc([C@H]3CC[C@H](C#N)CC3)nc2)CC1 | 110 °C
94 | CC(C)NC(=O)c1nc(-c2cccc(F)c2)c(-c2ccc(=O)n(C(C)C)n2)s1 | 104 to 106 °C
95 | CCOC(=O)c1c(CC)nc2c(C(F)(F)F)cccc2c1O | 129 °C
96 | CC(C)(C)c1cc(CCC(=O)NCCNc2c(Cl)c(Cl)nc(Cl)c2C#N)cc(C(C)(C)C)c1O | 185 to 189 °C
97 | CCOC(=O)Cc1c2cc(OC)ccc2n2c(Cc3ccccn3)nccc12 | 103 to 104 °C
98 | N#Cc1cc(-n2nnnc2C(F)(F)F)ccc1OC(F)(F)F | 65 to 67 °C
99 | Clc1ccc(C2CC(n3ccnc3)c3ccccc3N2)cc1 (stereo not given) | 158 to 160 °C
100 | COc1ccc(C(=O)O)c(Oc2ccc(C(F)(F)F)cc2NS(=O)(=O)c2cc(C(F)(F)F)cc(C(F)(F)F)c2)c1 | 182 °C
